Measured values: ChEMBL document CHEMBL4354880, “Synthesis and Structure-Activity Relationships of Arylsulfonamides as AIMP2-DX2 Inhibitors for the Development of a Novel Anticancer Therapy” (J Med Chem, 2020)
pEC50, pIC50: −log10 of the molar value. Active and inactive are the calls of the source. The rule behind the calls is not given here.

Key:
[1] = biological target: Aminoacyl tRNA synthase complex-interacting multifunctional protein 2 (Homo sapiens, UniProt Q13155); experiment: Inhibition of nanoluciferase-tagged AIMP2 DX2 isoform (unknown origin) expressed in human A549 cells measured after 4 hrs by luminescence assay; assay type: cell-based
A549 [2] = experiment: cells; details: Homo sapiens, A549, 72 h
Description: Antiproliferative activity against human A549 cells measured after 72 hrs by MTT assay

[3] = Cytotoxicity against human WI26 cells assessed as reduction in cell viability measured after 72 hrs by MTT assay
[4] = biological target: T1, Aminoacyl tRNA synthase complex-interacting multifunctional protein 2 (Homo sapiens, UniProt Q13155); experiment: Inhibition of nanoluciferase-tagged AIMP2 (unknown origin) expressed in human A549 cells measured after 4 hrs by luminescence assay; assay type: cell-based
T1 sequence (Q13155 whole entry): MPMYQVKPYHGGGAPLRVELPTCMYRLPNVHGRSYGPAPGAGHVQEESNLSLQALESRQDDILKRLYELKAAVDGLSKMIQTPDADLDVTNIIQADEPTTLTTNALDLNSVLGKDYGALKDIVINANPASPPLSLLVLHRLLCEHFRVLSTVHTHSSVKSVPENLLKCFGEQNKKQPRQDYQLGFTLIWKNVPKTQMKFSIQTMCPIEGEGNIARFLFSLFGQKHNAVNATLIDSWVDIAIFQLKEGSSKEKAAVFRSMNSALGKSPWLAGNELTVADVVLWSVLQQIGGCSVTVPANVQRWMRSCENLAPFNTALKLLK

[5] = Toxicity in human H460 cells xenografted BALB/c SLC nu/nu mouse assessed as change in body weight at 50 mg/kg, ip administered every other day for 15 days and measured 4 times during compound dosing; details: in vivo, 360 h
NCI-H460 [6] = experiment: Cytotoxicity against human NCI-H460 3D spheroid cells assessed as reduction in cell viability measured after 72 hrs by Celltiter-glo assay
NCI-H460 [7] = experiment: Antitumor activity against human H460 cells xenografted in BALB/c SLC nu/nu mouse assessed as reduction in tumor volume at 50 mg/kg, ip administered every other day for 15 days and measured 4 times during compound dosing; assay type: functional, organism-based
NCI-H460 [8] = experiment: Antitumor activity against human H460 cells xenografted in BALB/c SLC nu/nu mouse assessed as reduction in tumor weight at 50 mg/kg, ip administered every other day for 15 days and measured post-last dose; assay type: functional, organism-based
A549 [9] = experiment: Antiproliferative activity against human A549 cells stably expressing AIMP2 DX2 isoform measured after 72 hrs by MTT assay; assay type: functional, cell-based
A549 [10] = details: Homo sapiens, 5 uM
Description: Inhibition of LgBiT-tagged PRKACA-SmBiT-tagged PRKAR2A (unknown origin) protein-protein interaction expressed in human A549 cells at 5 uM measured after 4 hrs by luminescence assay

Row | pIC50 [1] | pEC50 (A549 [2]) | pIC50 [4] | SMILES | pEC50 [3] | Activity [5] | Activity (NCI-H460 [6]) | Activity (NCI-H460 [7]) | Activity (NCI-H460 [8]) | Activity (A549 [9]) | inhibition (A549 [10])
1 | 4.40 | 4.39 | < 4.00 | Cc1ccc(S(=O)(=O)N[C@@H](CC(C)C)C(=O)N2CCOCCOCCOCC2)cc1 | < 4.00 | – | – | – | – | – | –
2 | – | 5.92 | – | COc1ccc(-c2csc(NC(=O)[C@H](Cc3c[nH]c4ccccc34)NS(=O)(=O)c3ccc(C)cc3)n2)cc1 | < 4.00 | Non-Toxic | Dose-dependent effect | Active | Active | Active | inactive
3 | – | 4.85 | – | Cc1ccc(S(=O)(=O)N[C@@H](Cc2c[nH]c3ccccc23)C(=O)Nc2ccc(N3CCOCC3)cc2)cc1 | < 4.00 | – | – | – | – | – | –
